In a compilation of properties of binary mixtures (doi:10.1016/j.molliq.2018.02.064):

Experiment: xn = mol fraction of the nth substance listed
Settings: 100 kPa

CCCC[n+]1ccn(C)c1.O=S(=O)([N-]S(=O)(=O)C(F)(F)F)C(F)(F)F + CCO
viscosity [mPa·s]
Settings	x1 = 0.2129	x1 = 0.2688	x1 = 0.4215	x1 = 0.4606	x1 = 0.5784	x1 = 0.6609	x1 = 0.747	x1 = 0.8264	x1 = 1
293 K	5.22	6.47	12.72	13.9	–	24.9	32.4	40.9	63.5
293.3 K	5.19	6.42	12.59	–	20.5	24.6	–	40.4	62.7
293.61 K	5.15	–	12.47	13.7	20.4	24.4	31.8	39.9	–
293.91 K	–	6.33	12.34	–	20.2	–	31.4	39.4	61
294.21 K	5.08	6.28	–	13.42	20	–	31.1	38.9	–
294.52 K	5.05	6.24	12.1	13.3	19.8	23.7	–	–	–
294.82 K	5.01	6.19	–	13.18	19.6	23.5	30.5	38	–
295.12 K	4.98	6.15	–	13.06	19.4	23.3	–	37.6	57.8
295.42 K	–	–	11.75	–	19.2	23.1	29.9	37.1	57
295.73 K	4.91	6.06	11.64	12.82	19	22.8	29.5	–	56.3
296.03 K	4.87	6.02	11.52	12.7	18.9	22.6	29.2	36.2	55.6
296.33 K	4.84	5.98	11.41	12.59	18.7	22.4	28.9	35.8	54.8
296.64 K	4.81	–	11.31	–	18.5	22.2	28.6	35.4	–
296.94 K	4.77	5.89	11.2	–	18.34	22	–	35	53.4
297.24 K	4.74	–	–	12.25	–	21.8	–	34.5	52.7
297.55 K	4.71	5.81	10.99	12.14	18	21.6	27.8	–	52.1
297.85 K	4.68	5.77	10.88	12.04	17.83	21.4	27.5	33.7	–
298.15 K	–	–	10.78	11.93	17.67	21.2	27.2	33.3	50.8
298.45 K	4.61	5.69	10.68	11.82	17.5	–	–	33	50.1
298.76 K	4.58	5.65	–	11.72	17.34	20.8	26.7	–	49.5
299.06 K	–	5.61	10.49	11.62	–	–	26.4	32.2	48.9
299.36 K	4.52	5.57	10.39	11.52	17.03	20.4	26.2	31.8	48.3
299.67 K	4.48	5.53	10.29	–	16.87	20.2	25.9	31.5	47.7
299.97 K	–	5.49	10.2	11.31	–	20	25.6	31.1	47.1
300.27 K	–	5.45	–	11.22	16.56	19.9	–	–	46.5
300.58 K	4.39	5.41	–	11.12	16.41	19.7	25.1	30.4	45.9
300.88 K	4.36	–	–	11.02	16.26	19.5	24.9	30.1	45.4
301.18 K	4.33	–	9.84	10.93	16.11	19.3	24.6	29.7	44.8
301.48 K	–	5.3	9.75	10.83	15.97	19.1	24.4	29.4	44.3
301.79 K	4.27	5.26	9.66	10.74	15.82	19	24.2	29	43.7
302.09 K	4.24	5.22	9.57	10.65	15.68	18.8	23.9	28.7	43.2
302.39 K	4.21	5.19	9.49	–	15.54	18.6	23.7	28.4	42.7
302.7 K	–	–	9.41	10.47	15.4	18.5	–	–	42.2
303 K	4.15	5.11	9.32	–	15.26	18.3	–	27.8	41.7
303.3 K	4.13	–	9.24	10.29	15.12	18.1	23	27.4	41.2
303.61 K	4.1	5.04	9.16	10.2	14.99	18	22.8	27.1	40.7
303.91 K	4.07	5	9.08	10.12	14.85	17.8	22.6	–	40.2
304.21 K	4.04	4.97	9	10.03	14.72	17.6	22.3	26.5	39.8
304.52 K	4.01	4.93	8.92	–	–	17.5	22.1	26.2	–
304.82 K	3.98	–	–	9.87	14.46	17.3	–	26	38.9
305.12 K	3.96	4.86	8.77	9.78	14.33	17.1	21.7	25.7	–
305.42 K	3.93	4.83	8.7	9.7	14.2	16.99	21.5	25.4	38
305.73 K	3.9	4.8	8.62	9.62	14.07	16.84	21.3	25.1	37.5
306.03 K	3.88	–	8.55	9.54	13.95	16.69	21.1	24.8	37.1
306.33 K	3.85	4.73	8.48	9.46	–	16.54	20.9	–	36.7
306.64 K	3.82	–	8.41	9.39	13.7	–	20.7	24.3	36.2
306.94 K	–	4.66	8.34	9.31	13.58	16.24	20.5	24	35.8
307.24 K	3.77	4.63	–	–	13.46	16.09	20.3	23.8	35.4
307.55 K	3.74	4.6	8.2	9.16	13.34	15.95	20.1	23.5	35
307.85 K	3.72	4.56	8.13	9.08	13.23	15.81	19.9	23.3	34.7
308.15 K	3.69	–	8.06	9.01	13.11	–	19.7	23	34.3
308.45 K	–	4.5	7.99	8.94	13	–	–	22.8	33.9
308.76 K	3.64	4.47	–	8.86	–	15.39	–	22.5	33.5
309.06 K	3.61	–	7.86	8.79	12.77	15.25	19.2	22.3	33.1
309.36 K	3.59	4.4	7.8	8.72	12.66	15.11	19	22.1	32.8
309.67 K	3.56	4.37	–	8.65	12.55	14.98	18.8	21.8	–
309.97 K	3.54	4.34	7.67	–	12.44	14.85	–	21.6	32.1
310.27 K	3.52	4.31	7.61	8.51	12.33	14.71	18.4	21.4	31.7
310.58 K	3.49	4.28	7.55	8.44	12.22	14.58	–	21.1	31.4
310.88 K	–	4.25	7.49	8.38	–	14.45	18.09	–	31
311.18 K	3.44	4.22	7.43	–	12.01	14.33	17.92	20.7	30.7
311.48 K	–	4.19	7.37	8.24	11.91	14.2	17.75	20.5	30.4
311.79 K	3.39	4.16	7.31	–	–	14.07	–	–	30.1
312.09 K	3.37	–	7.25	8.11	11.7	–	17.42	20.1	29.7
312.39 K	3.35	–	7.19	–	11.6	13.83	17.26	19.8	29.4
312.7 K	3.32	–	7.13	7.98	11.5	13.7	17.1	19.6	29.1
313 K	3.3	4.04	7.08	7.92	11.4	13.58	–	19.4	–
313.3 K	3.28	4.02	–	7.86	11.3	13.46	16.78	19.2	28.5
313.61 K	3.26	3.99	6.96	7.8	11.21	13.34	16.62	–	28.2
313.91 K	3.23	3.96	6.91	7.74	11.11	–	–	18.8	27.9
314.21 K	–	–	6.86	7.68	11.02	13.11	–	18.6	27.6
314.52 K	3.19	3.9	6.8	7.62	–	13	–	18.5	27.3
314.82 K	3.17	3.88	6.75	7.56	10.83	–	16.02	18.3	27.1
315.12 K	3.14	3.85	6.7	7.5	10.74	12.77	15.87	–	26.8
315.42 K	3.12	–	6.64	7.44	10.64	–	15.72	17.9	26.5
315.73 K	3.1	3.79	–	7.38	–	–	15.58	17.7	26.2
316.03 K	3.08	–	6.54	7.33	10.46	12.44	15.43	17.5	26
316.33 K	3.06	3.74	6.49	–	10.38	12.33	15.29	17.4	25.7
316.64 K	3.03	3.71	–	7.21	–	12.22	15.15	17.2	–
316.94 K	3.01	3.69	6.39	7.16	10.2	–	15.01	–	25.2
317.24 K	2.99	3.66	6.34	7.1	10.11	–	14.88	16.9	24.9
317.55 K	2.97	–	–	7.05	–	11.91	14.74	16.7	24.7
317.85 K	2.95	3.61	–	6.99	9.94	–	14.6	16.5	–
318.15 K	2.93	–	6.2	–	9.86	11.7	14.47	16.3	24.2
318.45 K	2.91	3.56	6.15	6.89	9.78	11.6	14.34	–	23.9
318.76 K	2.89	3.53	6.1	–	–	11.5	14.21	16.02	–
319.06 K	–	3.51	6.06	6.78	9.61	11.4	14.08	15.86	23.5
319.36 K	2.85	3.48	6.01	6.73	9.53	11.3	13.95	15.71	23.2
319.67 K	2.83	3.46	–	6.68	9.45	11.2	–	15.55	23
319.97 K	2.81	3.43	5.92	–	–	11.1	13.7	15.4	22.8
320.27 K	2.79	3.41	5.88	6.58	–	11.01	–	–	22.6
320.58 K	2.77	3.38	–	6.53	9.22	10.91	13.45	15.09	22.3
320.88 K	2.75	3.36	5.79	6.48	9.14	10.82	13.33	14.95	22.1
321.18 K	2.73	3.34	5.74	–	9.06	–	13.21	14.8	21.9
321.48 K	2.71	3.31	5.7	6.38	8.99	10.63	–	14.66	21.7
321.79 K	2.69	–	5.66	–	8.91	10.54	12.97	14.51	21.5
322.09 K	–	3.27	–	6.29	8.84	10.45	12.86	14.37	–
322.39 K	2.65	3.24	5.58	6.24	8.76	10.36	–	14.23	21.1
322.7 K	2.63	3.22	5.53	6.19	8.69	10.27	–	14.09	20.9
323 K	2.62	3.2	5.49	–	8.62	10.18	12.51	13.96	20.7
